According to patent publication US12358921B2, “Antiviral heterocyclic compounds” (priority 2022, dated 2025):

Assays:
Format in all cases: cell-based
[1] = tested on: hMPV A2 TN/94-49; test: HMPV antiviral assay Method 2 (LLC-MK2 cells with CP-100-356, ATP-Lite); conditions: hMPV A2 TN/94-49, LLC-MK2 cells, 4 μM CP-100-356, Method 2
Outline: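 The protective effect was measured after 7 days at 37 °C by ATP-Lite luminescence and expressed as % cell health relative to virus-only and cells-only wells, with EC50 from a four-parameter logistic. Cells were LLC-MK2 infected with strain A2 TN/94-49 (MOI 0.16) with final 2 μM CP-100-356 and 2 μg/mL TPCK-trypsin; 10 duplicate concentrations from 200 nM, 2.5-fold steps.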

[2] = tested on: HUMAN RSV-A (“LONG” STRAIN); test: RSV-A assay (CPE, ATPlite) in Hep-2 cells; conditions: human respiratory syncytial virus, 120 h, MOI 0.1, 5-day incubation
Outline: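 Protection from RSV cytopathic effect read by ATP luminescence (ATPlite) after 5-day culture. Genotype A "Long" virus added at MOI 0.1 to Hep-2 monolayers at 8,000 cells/well, pre-dosed with duplicate 2-fold compound dilutions; controls include infected untreated and uninfected wells. EC50 values binned into ranges.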

[3] = tested on: hMPV A2 TN/94-49; test: HMPV antiviral assay Method 1 (LLC-MK2 cells, ATP-Lite); conditions: hMPV A2 TN/94-49, LLC-MK2 cells
Outline: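 LLC-MK2 cells infected in suspension with hMPV A2 TN/94-49 at MOI 0.005, 5,000 cells/well, in serum-free OptiMEM with 2 μg/mL TPCK-trypsin (final) and CaCl2; compounds in duplicate, 10 points, 2 μM top, 2.5-fold dilutions. After 7 days at 37 °C, cell health by ATP-Lite luminescence; EC50 by four-parameter fit.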

`COc1cc(C(=O)NC[C@@](O)(c2ccccc2)c2cc3c(c(-c4cc(F)c(F)cc4F)n2)OC[C@]3(C)C(N)=O)cc2cn(C3CC3)nc12` [Example 171] gave an EC50 [1] of under 0.2 µM, an EC50 [2] of under 0.2 µM and an EC50 [3] of under 0.5 µM.
For `COc1cc(C(=O)NC[C@@](O)(c2cccc(F)c2)c2cc3c(c(-c4ccc(F)c(Cl)c4Cl)n2)OC[C@]3(C)C(N)=O)cc2cn(C3(F)CC3)nc12` [Example 269], the EC50 [1] was under 0.2 µM, the EC50 [2] was under 0.2 µM and the EC50 [3] was under 0.5 µM.
`C[C@]1(C(N)=O)COc2c1cc([C@@](O)(CNC(=O)c1cc(OC3CC3)c3nn(C(F)F)cc3c1)C1CC(F)(F)C1)nc2-c1cc(F)c(F)cc1F` [Example 34] gave an EC50 [1] of under 0.2 µM, an EC50 [2] of under 0.2 µM and an EC50 [3] of under 0.5 µM.
Work on `COc1cc(C(=O)NCC(O)(c2cc3c(c(-c4cc(Cl)c(F)cc4F)n2)OC[C@]3(C)C(N)=O)c2ccc(C)s2)cc2cn(C3CC3)nc12` (some centres unmarked) [Example 470] yielded an EC50 [1] of under 0.2 µM, an EC50 [2] of under 0.2 µM and an EC50 [3] of under 0.5 µM.
In the case of `COc1cc(C(=O)NC[C@@](O)(c2ccc(F)cc2)c2cc3c(c(-c4cc(Cl)c(F)cc4F)n2)OC[C@]3(C)C(N)=O)cc2cn(C3CC3)nc12` [Example 12], the EC50 [1] is reported as under 0.2 µM, the EC50 [2] is reported as under 0.2 µM and the EC50 [3] is reported as under 0.5 µM.
With `COc1cc(C(=O)NC[C@@](O)(c2ccccc2)c2cc3c(c(-c4ccc(F)c(Cl)c4Cl)n2)OC[C@]3(C)C(N)=O)cc2cn(C3(F)CC3)nc12` [Example 259] the EC50 [1] was under 0.2 µM, the EC50 [2] was under 0.2 µM and the EC50 [3] was under 0.5 µM.
Work on `COc1cc(C(=O)NC[C@](O)(c2cc3c(c(-c4ccc(F)c(Cl)c4Cl)n2)OC[C@]3(C)C(N)=O)C(F)(F)F)cc2cn(C3CC3)nc12` [Example 65] yielded an EC50 [1] of under 0.2 µM, an EC50 [2] of under 0.2 µM and an EC50 [3] of under 0.5 µM.
Work on `C[C@]1(C(N)=O)COc2c1cc([C@@](O)(CNC(=O)c1cc(OC3CC3)n3nc(C4CC4)cc3c1)C1CC1)nc2-c1cc(Cl)c(F)cc1F` [Example 4] yielded an EC50 [1] of under 0.2 µM, an EC50 [2] of under 0.2 µM and an EC50 [3] of under 0.5 µM.
In the case of `COc1cc(C(=O)NC[C@@](O)(c2ccccc2)c2cc3c(c(-c4cc(Cl)c(F)cc4F)n2)OC[C@]3(C)C(N)=O)cc2oc(C3CC3)nc12` [Example 85], the EC50 [1] is reported as under 0.2 µM and the EC50 [3] is reported as under 0.5 µM.
`COc1cc(C(=O)NC[C@](O)(c2cc3c(c(-c4cc(Cl)c(F)cc4F)n2)OC[C@]3(C)C(N)=O)c2ccccc2F)cc2cc(C3CC3)nn12` [Example 137] showed an EC50 [2] of under 0.2 µM and an EC50 [3] of under 0.5 µM.
`[2H]C([2H])([2H])c1nc2c(OC)cc(C(=O)NC[C@@](O)(c3ccccc3)c3cc4c(c(-c5ccc6c(c5)OC(F)(F)O6)n3)OC[C@]4(C)C(N)=O)cc2s1` [Example 9] showed an EC50 [2] of under 0.2 µM and an EC50 [3] of under 0.5 µM.
In the case of `Cc1nc2ccc(C(=O)NC[C@@](O)(c3ccccc3)c3cc4c(c(-c5ccc(F)c(Cl)c5Cl)n3)OC[C@]4(C)C(N)=O)cc2o1` [Example 267], the EC50 [2] is reported as under 0.2 µM and the EC50 [3] is reported as under 0.5 µM.
With `COc1cc(C(=O)NC[C@@](O)(c2ccsc2)c2cc3c(c(-c4cc(F)c(F)cc4F)n2)OC[C@]3(C)C(N)=O)cc2cn(C(F)F)nc12` [Example 178] the EC50 [2] was under 0.2 µM and the EC50 [3] was under 0.5 µM.
In the case of `COc1cc(C(=O)NC[C@@](O)(c2cc3c(c(-c4cc(Cl)c(F)cc4F)n2)OC[C@]3(C)C(N)=O)c2cnn[nH]2)cc2cn(C3CC3)nc12` [Example 181], the EC50 [2] is reported as over 0.2 µM and the EC50 [3] is reported as over 0.5 µM.
In the case of `[2H]C([2H])([2H])c1nc2c(OC(F)F)cc(C(=O)NC[C@](O)(c3cc4c(c(-c5cc(Cl)c(F)cc5F)n3)OC[C@]4(C)C(N)=O)C3CC3)cc2cc1Br` [Example 11], the EC50 [2] is reported as under 0.2 µM and the EC50 [3] is reported as over 0.5 µM.
In the case of `COc1cc(C(=O)NC[C@@](O)(c2ccc(F)cc2)c2cc3c(c(-c4cc(Cl)c(F)cc4F)n2)OC[C@]3(C)C(N)=O)cc2cc(Cl)c(C)nc12` [Example 17], the EC50 [2] is reported as under 0.2 µM and the EC50 [3] is reported as under 0.5 µM.
Molecule `Cc1nc2ccc(C(=O)NC[C@@](O)(c3cccc(F)c3)c3cc4c(c(-c5ccc(F)c(Cl)c5Cl)n3)OC[C@]4(C)C(N)=O)cc2o1` [Example 283] has an EC50 [2] of under 0.2 µM and an EC50 [3] of under 0.5 µM.
`COc1cc(C(=O)NC[C@@](O)(c2ccsc2)c2cc3c(c(-c4cc(Cl)c(F)cc4F)n2)OC[C@]3(C)C(N)=O)cc2cn(C(F)F)nc12` [Example 174] gave an EC50 [2] of under 0.2 µM and an EC50 [3] of under 0.5 µM.
In the case of `CNC(=O)[C@@]1(C)COc2c1cc([C@@](O)(CNC(=O)c1cc(OC)c3nn(C4CC4)cc3c1)c1ccccc1)nc2-c1cc(Cl)c(F)cc1F` [Example 141], the EC50 [2] is reported as under 0.2 µM and the EC50 [3] is reported as under 0.5 µM.
`COc1cc(C(=O)NC[C@@](O)(c2ccsc2)c2cc3c(c(-c4cc(F)c(F)cc4F)n2)OC[C@]3(C)C(N)=O)cc2cn(C3CC3)nc12` [Example 177] showed an EC50 [2] of under 0.2 µM and an EC50 [3] of under 0.5 µM.
With `COc1cc(C(=O)NC[C@@](O)(c2ccc(F)cc2)c2cc3c(c(-c4ccc(F)c(Cl)c4Cl)n2)OC[C@]3(C)C(N)=O)cc2cn(C(F)F)nc12` [Example 42] the EC50 [2] was under 0.2 µM and the EC50 [3] was under 0.5 µM.
`COc1cc(F)ccc1-c1nc([C@@](O)(CNC(=O)c2cc(OC)c3nn(C4CC4)cc3c2)C2CC2)cc2c1OC[C@]2(C)C(N)=O` [Example 67] gave an EC50 [2] of under 0.2 µM and an EC50 [3] of over 0.5 µM.
`COc1cc(C(=O)NC[C@@](O)(c2ccccc2)c2cc3c(c(-c4ccc(F)c(Cl)c4Cl)n2)OC[C@]3(C)C(N)=O)cc2cn(C3CC3)nc12` [Example 257] was tested, and the EC50 [2] was under 0.2 µM and the EC50 [3] was under 0.5 µM.
For `C[C@]1(C(N)=O)COc2c1cc([C@@](O)(CNC(=O)c1cc(OC(F)F)c3nn(C4CC4)cc3c1)C1CC1)nc2-c1ccc(F)c(Cl)c1F` [Example 40], the EC50 [2] was under 0.2 µM and the EC50 [3] was under 0.5 µM.
For `COc1cc(C(=O)NC[C@](O)(c2cc3c(c(-c4ccc5ccsc5c4)n2)OC[C@]3(C)C(N)=O)C2CC2)cc2cn(C3CC3)nc12` [Example 48], the EC50 [2] was under 0.2 µM and the EC50 [3] was over 0.5 µM.
With `[2H]C([2H])([2H])c1cc2cc(C(=O)NC[C@](O)(c3cc4c(c(-c5cc(Cl)c(F)cc5F)n3)OC[C@]4(C)C(N)=O)C3CC3)cc(OC)c2nc1C([2H])([2H])[2H]` [Example 29] the EC50 [2] was under 0.2 µM and the EC50 [3] was under 0.5 µM.
Molecule `COc1cc(C(=O)NC[C@@](O)(c2cc3c(c(-c4cc(F)c(F)c(F)c4Cl)n2)OC[C@]3(C)C(N)=O)C(F)(F)F)cc2cn(C3CC3)nc12` [Example 58] has an EC50 [2] of under 0.2 µM and an EC50 [3] of over 0.5 µM.
Molecule `Cc1nc2c(OC(F)F)cc(C(=O)NC[C@@](O)(c3cccc(F)c3)c3cc4c(c(-c5cc(Cl)c(F)cc5F)n3)OC[C@]4(C)C(N)=O)cc2cc1Br` [Example 135] has an EC50 [2] of under 0.2 µM and an EC50 [3] of over 0.5 µM.
For `COc1cc(C(=O)NC[C@@](O)(c2ccc(F)cc2)c2cc3c(c(-c4ccc(F)c(Cl)c4Cl)n2)OC[C@]3(C)C(N)=O)cc2cc(C3CC3)nn12` [Example 45], the EC50 [2] was under 0.2 µM and the EC50 [3] was under 0.5 µM.
In the case of `[2H]C([2H])([2H])c1nc2c(OC)cc(C(=O)NC[C@@](O)(c3cccc(OC)c3)c3cc4c(c(-c5cc(Cl)c(F)cc5F)n3)OC[C@]4(C)C(N)=O)cc2s1` [Example 163], the EC50 [2] is reported as under 0.2 µM and the EC50 [3] is reported as under 0.5 µM.
`COc1cc(C(=O)NC[C@@](O)(c2ccccc2)c2cc3c(c(-c4ccc5c(c4Cl)OC(F)(F)O5)n2)OC[C@]3(C)C(N)=O)cc2cn(C(F)F)nc12` [Example 253] showed an EC50 [2] of under 0.2 µM and an EC50 [3] of under 0.5 µM.
For `COc1cc(C(=O)NCC(O)(c2csc(Cl)c2)c2cc3c(c(-c4cc(Cl)c(F)cc4F)n2)OC[C@]3(C)C(N)=O)cc2cn(C3CC3)nc12` (some centres unmarked) [Example 471], the EC50 [2] was under 0.2 µM and the EC50 [3] was under 0.5 µM.
In the case of `COc1cc(C(=O)NC[C@](O)(c2cc3c(c(-c4ccc(C(F)(F)F)c(C)c4)n2)OC[C@]3(C)C(N)=O)C2CC2)cc2cn(C3CC3)nc12` [Example 55], the EC50 [2] is reported as under 0.2 µM and the EC50 [3] is reported as over 0.5 µM.
